In PMC12518634, “The noncanonical function of liver-type phosphofructokinase potentiates the efficacy of HDAC inhibitors in cancer” (Signal Transduction and Targeted Therapy, 2025):
Read-outs that look alike come from different tables or passages of the source.

Legend:
1405R3 = assay: High-throughput drug screen, CellTiter-Glo viability, 72 h; type: cell-based, human; parameters: AUC: scale not given here; details: 1405R3 DSRT analysis; for AUC: area under the dose-response curve; for MIN: lower asymptote of fitted dose-response curve; for SLOPE: slope of fitted dose-response curve; for EC50: fitted dose-response curve, Min.Conc.tested 1, Max.Conc.tested 10000, 72 h, read-out: EC50
Procedure, shortened: (§1)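 Cholangiocarcinoma cells were seeded at 3000/well in 384-well plates and dosed after 24 h. Drugs were tested at 10, 1, 0.1, 0.01 and 0.001 μM in duplicate for 72 h, with viability read by CellTiter-Glo luminescence.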

783C-6 = assay: as above; type: cell-based, human; parameters: AUC: scale not given here; details: for AUC: area under the dose-response curve; for EC50: 72 h, read-out: EC50
Procedure, shortened: as §1

[1] = 783C-6 DSRT analysis, DSS calculated from the dose-response curve
[2] = 783C-6 DSRT analysis, MIN of the fitted dose-response curve
[3] = 783C-6 DSRT analysis, slope of the fitted dose-response curve
[4] = 783C-6 DSRT analysis, CellTiter-Glo viability, fitted dose-response curve, Min.Conc.tested 1, Max.Conc.tested 10000
[5] = 783C-6 cells, DSS of DSRT analysis
[6] = 783C-6 cells, minimum of dose-response curve
[7] = 783C-6 cells, slope of fitted dose-response curve

Compound	DSS (1405R3; DSS)	AUC (1405R3)	MIN (1405R3)	SLOPE (1405R3)	DSS (783C-6; [1])	MIN (783C-6; [2])	AUC (783C-6; 783C-6 DSRT analysis)	SLOPE (783C-6; [3])	EC50 (1405R3; CellTiter-Glo) [nM]	EC50 (783C-6; [4]) [nM]	EC50 (1405R3; Homo sapiens, CellTiter-Glo) [nM]	EC50 (783C-6; Homo sapiens) [nM]	DSS (1405R3; drug sensitivity score)	DSS (783C-6; [5])	AUC (783C-6; 783C-6 cells)	MIN (783C-6; [6])	SLOPE (783C-6; [7])	EC50 (1405R3; Homo sapiens, CellTiter-Glo viability, GI50) [nM]	EC50 (1405R3; CellTiter-Glo viability, GI50) [nM]	EC50 (783C-6; 783C-6 cells, DSRT analysis, CellTiter-Glo viability, concentrations tested 1 to 10000 (unit inferred), GI50) [nM]
O=C(NO)c1ccc(CC(=O)N(CCO)c2ccccc2)cc1 [HPOB]	0	0.1	100	-0.1	0	98.7	0.4	-1	–	–	–	–	–	–	–	–	–	–	–	–
CCNC(=O)C[C@@H]1N=C(c2ccc(Cl)cc2)c2cc(OC)ccc2-n2c(C)nnc21 [I-BET-762]	6	–	42	-2.5	0	97	–	-2.5	–	–	–	–	–	–	–	–	–	–	–	–
O=C1[C@H](Cc2ccc(O)cc2)N2C(=O)CCN(C(=O)NCc3ccccc3)[C@H]2CN1Cc1cccc2ccccc12 [ICG-001]	0	0.1	100	-0.1	0	90.7	16.9	-2.5	–	–	–	–	–	–	–	–	–	–	–	–
C#Cc1cccc(Nc2ncnc3cc4c(cc23)OCCOCCOCCO4)c1 [Icotinib]	1.4	21.6	84.3	–	0	90.4	16.8	–	–	–	–	–	–	–	–	–	–	–	–	–
Clc1ccc(N/N=C(\c2ccccc2)c2ccccn2)nc1 [JIB-04]	8.1	73.8	34.7	-1.2	4.8	18.2	43.9	-2.5	766	2960	–	–	–	–	–	–	–	–	–	–
Cc1nn2c([nH]c(=O)c3cccnc32)c1C#N [KDM4D-IN-1]	0	9.3	94	-0.1	0	93.6	0.8	-2.5	–	–	–	–	–	–	–	–	–	–	–	–
Cc1cn(CCN2CCN(c3ccccc3-c3cc(C#N)cc(C(=O)NCCCN4CCCC4)c3)CC2)c2ccccc12 [LLY-507]	5.5	49.7	1.8	–	3.9	23.1	36.6	–	–	–	3190	3430	–	–	–	–	–	–	–	–
Cc1cc(C)cc(C(=O)NOCCCCCC(=O)NO)c1 [LMK-235]	11.6	101.6	2	-1.7	9.8	3.5	84.5	-2.5	927	1330	–	–	–	–	–	–	–	–	–	–
CS(=O)(=O)CCNCc1ccc(-c2ccc3ncnc(Nc4ccc(OCc5cccc(F)c5)c(Cl)c4)c3c2)o1 [Lapatinib]	0	0	99.9	–	0	93.5	2	–	–	–	–	–	–	–	–	–	–	–	–	–
COc1cc2nccc(Oc3ccc(NC(=O)NC4CC4)c(Cl)c3)c2cc1C(N)=O [Lenvatinib]	0	0.1	99.3	–	0	93.6	8.6	–	–	–	–	–	–	–	–	–	–	–	–	–
Cc1ccc(F)c(NC(=O)Nc2ccc(-c3cccc4[nH]nc(N)c34)cc2)c1 [Linifanib]	0	3.9	97.4	–	3.9	68.4	53	–	–	–	–	255	–	–	–	–	–	–	–	–
Cn1c(/C=C/C(=O)NO)ccc1/C=C/C(=O)c1cccc(F)c1 [MC1568]	0	2.6	94.6	-0.6	0	98.4	0.2	-2.5	–	–	–	–	–	–	–	–	–	–	–	–
CCCCCCCc1ccc(CCc2cccc(O)c2C(=O)O)cc1 [MG149]	0	18.5	85.7	-0.2	0	87.6	3.7	-1	–	–	–	–	–	–	–	–	–	–	–	–
O=C(O)[C@]1(Cc2cccc(Nc3nccs3)n2)CC[C@@H](Oc2cccc(Cl)c2F)CC1 [MK-5108]	0	0.5	98.2	–	4.3	74.1	61.3	–	–	–	–	22.8	–	–	–	–	–	–	–	–
O=C(O)c1ccc(Nc2ncc3c(n2)-c2ccc(Cl)cc2C(c2c(F)cccc2F)=NC3)cc1 [MLN8054]	0	6.8	90.2	–	0	70.8	8.8	–	–	–	–	–	–	–	–	–	–	–	–	–
CCC(CC)(NC(=O)C(C)C)C(=O)N[C@@H](CCCN=C(N)N)C(=O)NC1(C(=O)NC(c2ccc(F)cc2)c2ccc(F)cc2)CCCC1 [MM-102]	0	18.6	88.1	-0.1	0	88.1	18.6	-0.1	–	–	–	–	–	–	–	–	–	–	–	–
CC(C)Oc1ccc(-c2c[nH]cc2CN(C)CCN)cc1 [MS023]	–	7.3	75.6	–	–	–	–	–	–	–	–	–	0	3.9	57.8	80.8	–	–	–	–
CNCCN1CCC(OCc2ccccc2)CC1 [MS049]	–	20.8	86.6	-0.1	–	–	–	–	–	–	–	–	0	0	4.9	83.6	-1	–	–	–
Nc1ccccc1NC(=O)c1ccc(CNc2nccc(-c3cccnc3)n2)cc1 [Mocetinostat]	–	100.5	1.1	–	–	–	–	–	–	–	–	917	11.8	11.6	98.8	4.8	–	965	–	–
Cc1cc(-c2ccc3nc(C4CCOCC4)n(CCOC(F)(F)F)c3c2)cn(C)c1=O [NEO2734]	–	130.5	8.1	-0.9	–	–	–	–	–	–	–	–	14.3	6.1	72.8	64.2	-0.3	–	407	87.4
CCCCN(Cc1ccc(C(=O)NO)cc1)C(=O)Nc1ccccc1 [Nexturastat A]	–	0.7	93.8	–	–	–	–	–	–	–	–	–	0	0	4.3	85.6	–	–	–	–
COC(=O)c1ccc2c(c1)NC(=O)/C2=C(\Nc1ccc(N(C)C(=O)CN2CCN(C)CC2)cc1)c1ccccc1 [Nintedanib]	–	13.7	84	–	–	–	–	–	–	–	–	2290	0.8	1.6	17.9	72.2	–	–	–	–
